Legend:
lymph nodes = assay: Biodistribution after injection into the mouse footpad; assay type: in vivo
Description: Each of the ICG: MSA, prepared in Example 3, and ICG, was treated into U937 cells (Korean Cell Line Bank (KCLB) No. 21593.1) activated with PMA (phorbol 12-myristate 13-acetate, Sigma, USA) (FIG. 9a), and the distribution thereof in the cells was monitored. […] In addition, each of ICG:MSA and ICG was injected into the mouse footpad, and the biodistribution thereof was examined.

[1] = tested on: metastatic sentinel lymph node; assay: Detection of metastatic sentinel lymph node (ex vivo fluorescence, H & E staining, immunostaining); assay type: in vivo, rabbit; conditions: n = 4 for ICG group, n = 5 for ICG:MSA group
Description: A VX2 rabbit tumor model (Radiology, 2005; 234:423-430) was established, and after 2 weeks, 60 μM of each of ICG and ICG:MSA was injected subcutaneously into the peritumor of the tumor model. Then, the efficiency with which each of ICG and ICG:MSA detects a sentinel lymph node was examined using a fluorescence imaging system (developed by the applicant). Dissected normal and metastatic lymph nodes were confirmed ex vivo by fluorescence, and whether cancer metastasized to the lymph nodes was examined by H & E tissue staining and immunostaining.

CC1(C)C(/C=C/C=C/C=C/C=C2\N(CCCCS(=O)(=O)O)c3ccc4ccccc4c3C2(C)C)=[N+](CCCCS(=O)(=O)[O-])c2ccc3ccccc3c21 [ICG, Indocyanine green]
biodistribution (lymph nodes): distributed in the popliteal lymph nodes and did spread to the axillary lymph nodes within a short time | Metastatic SLN rate [1]: 50% | Total [1]: 2

Reference: patent US10159756B2, “Complex of mannosyl serum albumin, method of preparing the same, optical imaging probe and kit comprising the same” (Korea University Research and Business Foundation, priority 2014, dated 2018)
